Test results reported in PMC10916352, “Safety Evaluation of a Prototypical Diazirine-Based Covalent Crosslinker and Molecular Adhesive” (International Journal of Toxicology, 2023).
Where “and” joins values, the source holds several entries; their conditions need not be identical. Equal values may be shown once.

Experiments:
[1] = system: isolated bovine cornea; test: Bovine Corneal Opacity and Permeability test (BCOP); design: key to Mean Opacity Change: mean of final − initial opacity; opacity = (I0/I − 0.9894)/0.0251
Method: The BCOP Assay was performed to evaluate the eye hazard potential of BondLynx, as measured by its ability to induce opacity and increase permeability in an isolated bovine cornea. The BCOP is an in vitro model that provides short-term maintenance of normal physiological and biological function of the bovine cornea in an isolated system so that eye damage can be assessed by quantitative measurements of changes in corneal opacity and permeability.[45],[46]
Tests were performed using bovine corneas isolated from the eyes of young cattle after slaughter and transported in biological saline under cooled conditions. […] BondLynx was ground with a mortar and pestle and applied directly to the corneas as a solid. Tests were performed in triplicate.
Bovine eyes were checked for unacceptable defects, such as opacity, scratches, pigmentation, and neovascularization upon receipt by removing them from the physiological saline and holding them in the light. Corneas were isolated from acceptable specimens and stored in a petri dish with cMEM (Eagle’s Minimum Essential Medium with 1% v/v L-glutamine and 1% v/v foetal bovine serum) at 32 ± 1°C. Isolated corneas were mounted in a corneal holder with the endothelial side against the O-ring of the posterior half of the holder and the anterior half of the holder tightened on top of the cornea with screws. The compartments of the corneal holder were filled with cMEM and the corneas were incubated for a minimum of 1 h at 32 ± 1°C. The initial corneal opacity was determined by replacing the medium in both compartments with fresh cMEM and using an opacitometer to measure the opacity against a cMEM filled chamber. Only corneas with an initial opacity <7 were used for testing.
A total of three samples were prepared for each test item by removing the medium from the anterior compartment of the holder and applying 750 μL of positive or negative control, or 306.6-333.6 mg of BondLynx. The corneal holders were positioned so that the test item uniformly covered the cornea within, and the entire assembly was incubated at 32 ± 1°C for 240 ± 10 min. The test item was then removed, and the epithelium was washed at least three times with MEM containing phenol red. Corneas were visually inspected for pH effects and dissimilar opacity patterns before refilling both compartments with fresh cMEM.
Corneal opacity was measured by the diminution of light (I = luminous flux per area) passing through the cornea. The opacity value was calculated according to the formula: Opacity=I0/I−0.9894/0.0251 where I0 is the empirically determined illuminance through a cornea holder with just windows and medium and I is the measured illuminance through a holder with a cornea. The change in opacity for each individual cornea was calculated by subtracting the initial opacity from the final post-treatment reading, and the corrected opacity was calculated by subtracting the average change in opacity of the negative control corneas (if > 0) from the change in opacity for corneas treated with BondLynx or positive control.
Following the final opacity measurement, permeability of the cornea to Na-fluorescein was evaluated by removing the medium from both corneal holder compartments, then refilling the posterior compartment with fresh cMEM and the anterior compartment with 1 mL of Na-fluorescein in cMEM (5 mg/mL). The corneal holders were positioned so that the test item uniformly covered the cornea within, and the entire assembly was incubated at 32 ± 1°C for 90 ± 5 min. The medium from the posterior compartment was then removed, and a 360 μL aliquot was placed in a 96-well plate to measure the OD490 in triplicate. Any sample with an OD490 that was 1.500 or higher was diluted to bring the OD490 into the acceptable range. The corrected OD490 was calculated by subtracting the average change in OD490 for the negative control (if > 0) from the change in OD490 of either BondLynx or positive control treated cornea.

[2] = system: Salmonella typhimurium TA98; test: Bacterial reverse mutation test (Ames), strain TA98; assay type: cell-based; conditions: for Revertant Colonies (With S9), plates A, B, C / Revertant Colonies (Without S9), plates A, B, C: individual plates
Method: The reverse mutation test was performed to determine the potential of BondLynx and/or its metabolites to induce reverse mutations at the histidine locus of Salmonella typhimurium.[26],[27] The test employs strains of Salmonella typhimurium carrying mutations in the genes involved in histidine production, such that they are only able to grow in histidine supplemented culture media. Upon exposure to mutagenic materials, these mutations may be reversed, thereby restoring the ability to grow in histidine-free media. When grown in the presence of the test compound on media with a small amount of histidine, tester strains grow briefly to allow the opportunity for mutation, followed by proliferation of revertant colonies upon depletion of the provided histidine. Thus, the number of revertant colonies following incubation is indicative of the ability of the test compound to induce mutations.
Tests were performed on two strains of the bacteria (TA98 and TA100) in the absence and presence of an exogenous mammalian metabolic activation system (5% v/v S9). Positive controls and BondLynx were suspended in dimethyl sulfoxide (DMSO) for testing, and DMSO served as the vehicle control. Positive controls consisted of 2-nitrofluorene (10 μg/plate) for the TA98 strain without S9, methyl mesylate (650 μg/plate) for the TA100 strain without S9, and 2-aminoanthracene for both strains with S9 (1 μg/plate for TA98 and 5 μg/plate for TA100). Eight concentrations of BondLynx (1.7, 5.4, 17, 52, 164, 512, 1600 and 5000 μg/plate) were tested in triplicate. The vehicle control was tested in triplicate and the positive controls were tested singular.
Test solutions were prepared by pre-incubating .1 mL fresh bacterial culture (10^9 cells/mL), .1 mL of a BondLynx dilution or control solution, and .5 mL of S9 mix or .1 M phosphate buffer for 30 min before adding to 3 mL of molten (45 ± 2°C) top agar. After mixing in a vortex, agar solutions were poured onto selective agar plates. Upon solidification, the prepared plates were inverted and incubated at 37.0 ± 1.0°C for 48 ± 4 h. Following incubation, revertant colonies were counted with a Sorcerer Colony Counter. The condition of the bacterial background lawn was evaluated macroscopically and/or microscopically using a dissecting microscope when considered necessary.

[3] = In vitro skin corrosion test, MTT viability; conditions: human, EpiDerm Skin Model (reconstructed human epidermis)
Method: The skin corrosion test was performed to assess the cytotoxic effects of BondLynx immediately following short-term exposure to the stratum corneum of the epidermis using an in vitro skin model.[32]–[34] Cytotoxicity to the skin model was expressed as the reduction of mitochondrial dehydrogenase activity measured by formazan production from 3-(4,5-dimethylthiazol-2-yl)-2,5-diphenyl tetrazolium bromide (MTT). […] BondLynx was checked for direct MTT reduction by incubating at least 50 mg of BondLynx with 1 mL MTT for 3 h to ensure that no blue/purple colour change or precipitate occurred. BondLynx was tested for colour interference by incubating at least 50 mg of BondLynx in water for 1 h and isopropanol for 2-3 h, centrifuging for 30 s at 16,000 g, and measuring the OD570 to ensure an optical density ≤.08 (after subtracting a Milli-Q water blank).
Incubations were performed at 37.0-37.3°C, in an atmosphere with 77%-95% humidity containing 5.0 ± .5% CO2 in air unless otherwise stated. The positive control was 8.0 N aqueous potassium hydroxide (KOH) solution, and the negative control was Milli-Q water. BondLynx was applied directly to the test system as a solid and spread to match the size of the tissue. Tests were performed in duplicate.
Skin tissue samples were refrigerated for 1 day upon receipt before placing in a six-well plate with .9 mL supplemented DMEM (just enough to reach the bottom of the tissue) 1 h before testing. A total of four samples were prepared per test item by applying 50 μL of the positive or negative control, or 25 μL of Milli-Q water (to moisten the tissue and ensure close contact) followed by 34.2-39.8 mg of BondLynx. Two samples of each test item were incubated for 3 min at room temperature, while the remaining samples were incubated for 1 h. After exposure, tissues were washed with phosphate buffered saline, dried carefully, and stored in 300 μL DMEM in a 24 well plate until the full six-well plate was dosed and rinsed.
Cell viability after incubation was determined by replacing the DMEM with 300 μL MTT in supplemented DMEM (1 mg/mL) and incubating for 3 h. Tissues were then washed with phosphate buffer saline, and formazan was extracted with 2 mL isopropanol overnight. The amount of extracted formazan was measured in triplicate for each sample by the OD570.
Optical density readings were corrected by subtracting the mean blank OD570. Cell viability was calculated as the percentage of the mean corrected OD570 for the test compound relative to the mean OD570 for the negative control (% Viability = ODtest/ODnegative control × 100%).

[4] = TA98, without S9, 1600 μg/plate
[5] = TA98, without S9, 5000 μg/plate

FC(F)(F)C1(c2ccc(C(c3ccc(C4(C(F)(F)F)N=N4)cc3)(C(F)(F)F)C(F)(F)F)cc2)N=N1 [BondLynx, 2,2-bis-[4-[3-(trifluoromethyl)-3H-diazirin-3-yl]phenyl]hexafluoropropane]
Opacity ([1]; 240 min exposure, individual corneas): 0.9 and 0.7
Appearance of corneas after treatment ([1]; 240 min of treatment): clear
UN GHS eye damage classification ([1]; IVIS <3: No Category): does not require classification for eye damage or irritation
pH effects in the rinsing medium ([1]; after 240 min exposure): No pH effects
Corrected Opacity Change ([1]; individual corneas): 1.6 and 0.9 and 0.7
Final Opacity ([1]; individual corneas, after 240 min treatment): 1.9 and 0.9 and 2.5
Initial Opacity ([1]; individual corneas, before treatment): 0.3 and 0 and 1.8
Opacity Change ([1]; individual corneas, final minus initial): 1.6 and 0.9 and 0.7
IVIS ([1]; individual corneas, opacity + 15 × OD490): 0.9 and 1.0
Mean IVIS ± SD ([1]; three corneas): 1.2 ± 0.4
Mean Opacity Change ([1]; three corneas): 1.1
Mutagenicity conclusion ([2]; TA98, absence and presence of S9, 1.7 to 5000 μg/plate): non-mutagenic
Total number of revertants relative to concurrent vehicle control ([2]; TA98, vs DMSO vehicle control): less than three times
Revertant Colonies (With S9), Mean ± SD ([2]; TA98, with S9, 1.7 μg/plate): 20 ± 9
Revertant Colonies (With S9), plates A, B, C ([2]; TA98, with S9, 1.7 μg/plate): 10 and 23 and 26
Revertant Colonies (With S9), Mean ± SD ([2]; TA98, with S9, 5.4 μg/plate): 13 ± 8
Revertant Colonies (With S9), plates A, B, C ([2]; TA98, with S9, 5.4 μg/plate): 4 and 15 and 19
Revertant Colonies (With S9), Mean ± SD ([2]; TA98, with S9, 1600 μg/plate): 17 ± 8
Revertant Colonies (With S9), plates A, B, C ([2]; TA98, with S9, 1600 μg/plate): 26 and 16 and 10
Revertant Colonies (With S9), Mean ± SD ([2]; TA98, with S9, 5000 μg/plate): 13 ± 5
Revertant Colonies (With S9), plates A, B, C ([2]; TA98, with S9, 5000 μg/plate): 8 and 16 (2×)
Revertant Colonies (Without S9), Mean ± SD ([2]; TA98, without S9, 1.7 μg/plate): 9 ± 2
Revertant Colonies (Without S9), plates A, B, C ([2]; TA98, without S9, 1.7 μg/plate): 8 and 11 and 7
Revertant Colonies (Without S9), Mean ± SD ([2]; TA98, without S9, 5.4 μg/plate): 8 ± 4
Revertant Colonies (Without S9), plates A, B, C ([2]; TA98, without S9, 5.4 μg/plate): 4 and 12 and 8
Revertant Colonies (Without S9), Mean ± SD ([2]; TA98, without S9, 17 μg/plate): 13 ± 4
Revertant Colonies (Without S9), plates A, B, C ([2]; TA98, without S9, 17 μg/plate): 15 and 11 and 12
Revertant Colonies (Without S9), Mean ± SD [2, 4]: 9 ± 5
Revertant Colonies (Without S9), plates A, B, C [2, 4]: 7 and 15 and 5
Revertant Colonies (Without S9), Mean ± SD [2, 5]: 14 ± 3
Revertant Colonies (Without S9), plates A, B, C [2, 5]: 18 and 12 (2×)
Cytotoxicity (condition of microcolony lawn) ([2]; absence of S9, higher concentrations): slight thinning of the microcolony lawn
Cytotoxicity (condition of microcolony lawn) ([2]; presence of S9, any tested dose level): toxicity was not observed
viability at 3 min [3]: 101%
viability at 1 h [3]: 95%
